Measured values from EP4778922A1, “BICYCLIC COMPOUND, AND PREPARATION METHOD THEREFOR AND PHARMACEUTICAL USE THEREOF” (Shanghai Jeyou Pharmaceutical Co., Ltd., priority 2023, dated 2025).
Like-named read-outs stand apart in the source and are kept apart here.

Legend:
[1] = test system: LNCaP cells; assay: Cell proliferation inhibition assay in LNCaP cells (0.2 nM DHT, CellTiter-Glo, 7 days); assay type: cell-based, human
Description: • 1. The human prostate cancer cell lines 22RV1 and LNCaP were purchased from ATCC. […] The cell concentration was adjusted to an appropriate concentration (determined based on the results of cell density optimization experiments), and the cells were seeded into a 96-well plate. A 100 µL cell suspension was added, resulting in 3000 cells per well. […] On the second day, for 22Rv1 cells, test compounds at different concentrations were added, and the cells were incubated at 37°C in a 5% CO2 incubator for 7 days; for LNCaP cells, test compounds at different concentrations were added first, and after 1 hour of treatment, 0.2 nM DHT was added. The cells were then incubated at 37°C in a 5% CO2 incubator for 7 days. • 4. After the incubation period, a volume of CellTiter-Glo detection reagent equal to the volume of the culture medium was added to each well. The plate was shaken and mixed thoroughly for 5 minutes, then incubated at room temperature for 10 minutes. Readings were taken using a PerkinElmer EnVision microplate reader. • 5.
The IC50 curve was fitted and the IC50 value was calculated using the software GraphPad Prism 8 with the calculation formula XY-analysis/Nonlinear regression (curve fit)/Dose response-Inhibition/log (inhibitor) vs. response-Variable slope (four parameters).

[2] = target: T1, CYP2C19 (Homo sapiens, UniProt P33261); assay: CYP inhibition assay in human liver microsomes; assay type: in vitro ADME; settings: human liver microsomes, NADPH; read-out: CYPs 2C19 (IC50)
T1 construct: co-incubated with human liver microsomes; from tissue; host or cells: human liver microsomes
T1 sequence (P33261 whole entry): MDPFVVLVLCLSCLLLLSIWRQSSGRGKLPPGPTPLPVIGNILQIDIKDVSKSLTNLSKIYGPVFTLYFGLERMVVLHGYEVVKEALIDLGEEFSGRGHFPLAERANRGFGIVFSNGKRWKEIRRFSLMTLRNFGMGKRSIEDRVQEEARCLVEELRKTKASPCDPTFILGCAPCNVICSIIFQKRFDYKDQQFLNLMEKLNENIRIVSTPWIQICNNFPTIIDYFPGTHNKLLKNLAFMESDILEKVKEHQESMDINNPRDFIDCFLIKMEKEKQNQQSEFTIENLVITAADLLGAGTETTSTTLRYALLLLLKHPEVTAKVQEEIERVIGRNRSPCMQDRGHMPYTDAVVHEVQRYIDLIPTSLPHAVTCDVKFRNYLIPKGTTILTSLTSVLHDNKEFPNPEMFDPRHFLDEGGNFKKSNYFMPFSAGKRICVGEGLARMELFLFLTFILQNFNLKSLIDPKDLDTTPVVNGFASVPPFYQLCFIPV
Description: (§1) Test Example 3: CYP Inhibition Assay
(§2) An in vitro assay system was used to evaluate the effects of the compounds on the activities of several human liver microsomal cytochrome P450 (CYP) isozymes (CYP1A2, CYP2C9, CYP2D6, CYP3A4 (testosterone/midazolam), CYP2C19, and CYP2C8). Specific probe substrates for CYP450 isozymes were co-incubated with human liver microsomes and the compound at various concentrations (0, 0.0300, 0.100, 0.300, 1.00, 3.00, 10.0 µM). The reaction was initiated by adding the coenzyme NADPH. After the reaction was completed, the samples were processed, and the metabolites generated from the probe substrates were detected by liquid chromatography-tandem mass spectrometry (LC-MS/MS). Based on the resulting dose-response curves, the IC50 values of the test compounds for the probe substrate reactions catalyzed by each CYP isozyme were calculated.

[3] = target: T2, CYP2C8 (Homo sapiens, UniProt P10632); assay: CYP inhibition assay in human liver microsomes; assay type: in vitro ADME; settings: human liver microsomes, NADPH; read-out: CYPs 2C8 (IC50)
T2 construct: co-incubated with human liver microsomes; from tissue; host or cells: human liver microsomes
T2 sequence (P10632 1-490): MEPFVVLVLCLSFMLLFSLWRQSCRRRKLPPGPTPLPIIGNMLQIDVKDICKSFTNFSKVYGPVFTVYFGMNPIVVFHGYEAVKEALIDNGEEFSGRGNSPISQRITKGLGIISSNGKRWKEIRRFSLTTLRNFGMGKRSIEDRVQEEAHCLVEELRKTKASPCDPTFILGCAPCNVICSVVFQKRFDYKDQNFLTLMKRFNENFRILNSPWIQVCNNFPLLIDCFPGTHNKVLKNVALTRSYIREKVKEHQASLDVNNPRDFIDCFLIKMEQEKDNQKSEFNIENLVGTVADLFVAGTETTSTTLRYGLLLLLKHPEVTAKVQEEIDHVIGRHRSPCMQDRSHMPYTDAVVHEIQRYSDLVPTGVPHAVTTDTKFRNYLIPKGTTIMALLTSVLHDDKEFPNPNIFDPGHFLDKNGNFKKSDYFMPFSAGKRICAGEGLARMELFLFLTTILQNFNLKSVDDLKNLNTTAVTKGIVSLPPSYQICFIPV
Description: as §1, §2

[4] = target: T3, CYP3A4 (testosterone/midazolam) (Homo sapiens, UniProt P08684); assay: CYP inhibition assay in human liver microsomes; assay type: in vitro ADME
T3 construct: co-incubated with human liver microsomes; from tissue; host or cells: human liver microsomes
T3 sequence (P08684 whole entry): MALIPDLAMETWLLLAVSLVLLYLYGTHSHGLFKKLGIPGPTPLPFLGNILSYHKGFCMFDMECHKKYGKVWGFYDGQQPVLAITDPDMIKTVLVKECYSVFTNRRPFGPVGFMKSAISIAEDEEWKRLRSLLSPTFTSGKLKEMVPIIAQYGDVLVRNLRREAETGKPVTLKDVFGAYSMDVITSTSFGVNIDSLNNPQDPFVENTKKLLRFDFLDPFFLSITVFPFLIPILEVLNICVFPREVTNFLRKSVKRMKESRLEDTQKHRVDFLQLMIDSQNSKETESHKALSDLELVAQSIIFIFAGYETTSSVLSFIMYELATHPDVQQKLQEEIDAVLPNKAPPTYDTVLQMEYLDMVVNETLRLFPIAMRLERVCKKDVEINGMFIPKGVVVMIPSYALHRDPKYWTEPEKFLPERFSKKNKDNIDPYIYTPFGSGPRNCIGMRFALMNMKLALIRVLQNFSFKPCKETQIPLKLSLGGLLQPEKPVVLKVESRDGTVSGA
Description: as §1, §2

[5] = test system: 22RV1 cells; assay: Cell proliferation inhibition assay in 22RV1 cells (CellTiter-Glo, 7 days); assay type: cell-based, human
Outline: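 LNCaP and 22RV1 human prostate cancer cells, 3000 per well, exposed to graded compound for 7 days at 37°C, 5% CO2; LNCaP got 0.2 nM DHT 1 h after compound. Viability by CellTiter-Glo luminescence; IC50 from four-parameter variable-slope fit.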

[6] = Mouse pharmacokinetic test; assay type: in vivo, ICR mice; settings: for bioavailability: PO-30mpk vs IV-0.5mpk
Outline: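 Male naive ICR mice (25–30 g, n=3 per route) received a single intravenous or oral dose, with feeding resumed 4 h post-dose. Blood was centrifuged at 4°C, and plasma was stored at -80°C until analysis.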

[7] = target: T4, CYP2C9 (Homo sapiens, UniProt P11712); assay: CYP inhibition assay in human liver microsomes; assay type: in vitro ADME; settings: human liver microsomes, NADPH; read-out: CYPs 2C9 (IC50)
T4 construct: co-incubated with human liver microsomes; from tissue; host or cells: human liver microsomes
T4 sequence (P11712 whole entry): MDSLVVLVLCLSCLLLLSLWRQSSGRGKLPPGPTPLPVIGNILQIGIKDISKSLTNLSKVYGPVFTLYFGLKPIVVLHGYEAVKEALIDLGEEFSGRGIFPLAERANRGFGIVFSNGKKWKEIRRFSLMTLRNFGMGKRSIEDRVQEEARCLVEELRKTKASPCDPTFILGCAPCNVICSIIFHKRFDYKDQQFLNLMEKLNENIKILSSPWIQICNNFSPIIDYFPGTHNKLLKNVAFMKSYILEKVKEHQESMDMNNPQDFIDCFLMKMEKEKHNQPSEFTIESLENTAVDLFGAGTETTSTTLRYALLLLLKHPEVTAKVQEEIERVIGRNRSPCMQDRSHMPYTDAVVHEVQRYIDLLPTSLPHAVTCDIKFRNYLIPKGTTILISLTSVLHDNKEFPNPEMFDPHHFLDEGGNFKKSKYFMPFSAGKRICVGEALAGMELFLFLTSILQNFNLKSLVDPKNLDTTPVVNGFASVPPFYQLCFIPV
Description: as §1, §2

[8] = probe substrate midazolam, read-out: CYPs 3A4 (Midazolam) (IC50)
[9] = probe substrate testosterone, read-out: CYPs 3A4 (Testosterone) (IC50)
[10] = plasma, po, 30 mg/kg, PO-30mpk, read-out: Tmax
[11] = plasma, iv, 0.5 mg/kg, IV-0.5mpk

Row | Structure (SMILES) | IC50 [2] | IC50 [3] | IC50 [4, 8] | IC50 [4, 9] | IC50 ([5]; Homo sapiens, 22Rv1, 168 h) | Cmax ([6]; plasma, po, 30 mg/kg, PO-30mpk) | half-life ([6]; plasma, po, 30 mg/kg, PO-30mpk) | Tmax [6, 10] | AUC(0-inf) ([6]; plasma, po, 30 mg/kg, PO-30mpk) | IC50 [7] | other results
1 | CC(C)(c1ccc(-c2cnc(OCc3ccnc(N4CC(S(=N)(=O)C5CC5)C4)n3)cn2)cc1)c1cc(Cl)c(OCCCl)c(C#N)c1 (single isomer, unassigned) [Compound 350A] | > 10 µM | > 10 µM | > 10 µM | > 10 µM | – | – | – | – | – | – | IC50 ([1]; Homo sapiens, LNCaP, 168 h): 0.055 µM
2 | CC(C)(c1ccc(-c2cnc(OCc3ccnc(N4CC5(CCS5(=N)=O)C4)n3)cn2)cc1)c1cc(Cl)c(OCCCl)c(C#N)c1 (single isomer, unassigned) [Compound 375A] | > 10 µM | > 10 µM | > 10 µM | > 10 µM | 0.089 µM | 109000 ng/mL | 6.82 h | 3.3 h | – | – | IC50 [1]: 0.058 µM; AUCi ([6]; PO-30mpk, 30 mg/kg): 1307.079 µg·h/mL
3 | CC(C)(c1ccc(-c2cnc(OCc3ccnc(N4CC5(CCS5(=N)=O)C4)n3)cn2)cc1)c1cc(Cl)c(OCCCl)c(C#N)c1 (single isomer, unassigned) [Compound 375B] | > 10 µM | > 10 µM | > 10 µM | > 10 µM | – | – | – | – | – | – | IC50 [5]: 0.12 µM; IC50 ([1]; Homo sapiens, LNCaP, 168 h): 0.1 µM; AUCi ([6]; PO-30mpk, 30 mg/kg): 2620.877 µg·h/mL; Cmax (PO) ([6]; PO-30mpk, 30 mg/kg): 153425 ng/mL; T1/2 ([6]; PO-30mpk, 30 mg/kg): 8.67 h; Tmax ([6]; PO-30mpk, 30 mg/kg): 4.0 h
4 | CC(C)(c1ccc(-c2ccc(OCc3ccnc(N=S4(=O)CCCC4)n3)cc2)cc1)c1cc(Cl)c(OCCCl)c(C#N)c1 [Compound 7] | – | > 10 µM | > 10 µM | > 10 µM | 0.46 µM | 12300 ng/mL | 5 h | 3.3 h | 161 µg·h/mL | 7.3 µM | –
5 | CC(C)(c1ccc(-c2ccc(OCc3ccnc(N=S4(=O)CCCC4)n3)cc2)cc1)c1cnc2c(cnn2CCCl)c1 [Compound 46] | > 10 µM | > 10 µM | 4.5 µM | > 10 µM | 0.59 µM | 20700 ng/mL | 3.58 h | 4 h | 220 µg·h/mL | 6.7 µM | –
6 | CC(C)(c1ccc(-c2ccc(OC3CCN(c4ccnc(P(C)(C)=O)n4)CC3)cc2)cc1)c1cc(Cl)c(OCCCl)c(C#N)c1 [Compound 48] | > 10 µM | 1.7 µM | > 10 µM | > 10 µM | 0.44 µM | 13000 ng/mL | 18 h | 4 h | 358 µg·h/mL | 5.4 µM | –
7 | CC(C)(c1ccc(-c2ccc(OCc3ccnc(N4CC(S(C)(=O)=O)C4)n3)cc2)cc1)c1cc(Cl)c(OCCCl)c(C#N)c1 [Compound 53] | > 10 µM | > 10 µM | > 10 µM | > 10 µM | 0.28 µM | 13200 ng/mL | 28.1 h | 4 h | 421 µg·h/mL | > 10 µM | C0 ([6]; plasma, 0.5 mg/kg, IV-0.5mpk): 2100 ng/mL; clearance ([6]; plasma, 0.5 mg/kg, IV-0.5mpk): 0.59 mL/min/kg; bioavailability ([6]; plasma, 30 mg/kg): 68.4%; AUC(0-inf) [6, 11]: 10.2 µg·h/mL; half-life [6, 11]: 33.6 h
8 | CC(C)(c1ccc(-c2ccc(OCc3ccnc(N4CC5(CC(P(C)(C)=O)C5)C4)n3)cc2)cc1)c1cc(Cl)c(OCCCl)c(C#N)c1 [Compound 61] | > 10 µM | > 10 µM | > 10 µM | > 10 µM | 0.38 µM | 15600 ng/mL | 7.6 h | 6 h | 242 µg·h/mL | > 10 µM | –
9 | CC(C)(c1ccc(-c2ccc(OC3CCN(c4ccnc(N=S5(=O)CCCC5)n4)CC3)cc2)cc1)c1cc(Cl)c(OCCCl)c(C#N)c1 [Compound 65] | > 10 µM | 4.3 µM | > 10 µM | > 10 µM | 1.18 µM | – | – | – | – | > 10 µM | –
10 | CC(C)(c1ccc(-c2ccc(OCc3ccnc(N4CCC(S(C)(=O)=O)CC4)n3)cc2)cc1)c1cc(Cl)c(OCCCl)c(C#N)c1 [Compound 94] | > 10 µM | > 10 µM | > 10 µM | > 10 µM | 0.49 µM | – | – | – | – | > 10 µM | IC50 ([1]; Homo sapiens, LNCaP, 168 h): 0.79 µM
11 | CC(C)(c1ccc(-c2ccc(OCc3ccnc(N4CC5(CCS5(=O)=O)C4)n3)cc2)cc1)c1cc(Cl)c(OCCCl)c(C#N)c1 [Compound 176] | > 10 µM | > 10 µM | > 10 µM | > 10 µM | 0.39 µM | 21300 ng/mL | 19.6 h | 4 h | 407 µg·h/mL | > 10 µM | –
12 | CC(C)(c1ccc(-c2ccc(OCc3ccnc(N4CC5(CCS(=O)(=O)CC5)C4)n3)cc2)cc1)c1cc(Cl)c(OCCCl)c(C#N)c1 [Compound 177] | > 10 µM | > 10 µM | > 10 µM | > 10 µM | 0.21 µM | 17800 ng/mL | 33.7 h | 6 h | 558 µg·h/mL | > 10 µM | –
13 | CC(C)(c1ccc(-c2ccc(OCc3ccnc(N4CC(S(C)(=O)=O)C4)n3)nc2)cc1)c1cc(Cl)c(OCCCl)c(C#N)c1 [Compound 207] | > 10 µM | > 10 µM | > 10 µM | > 10 µM | 0.34 µM | 33900 ng/mL | 9.8 h | 3 h | 446 µg·h/mL | > 10 µM | C0 ([6]; plasma, 0.5 mg/kg, IV-0.5mpk): 1620 ng/mL; clearance ([6]; plasma, 0.5 mg/kg, IV-0.5mpk): 1.1 mL/min/kg; bioavailability ([6]; plasma, 30 mg/kg): 97.7%; AUC(0-inf) [6, 11]: 7.61 µg·h/mL; half-life [6, 11]: 16.1 h
14 | CC(C)(c1ccc(-c2ccc(OCc3ccnc(N4CC5(CCS(=N)(=O)CC5)C4)n3)cc2)cc1)c1cc(Cl)c(OCCCl)c(C#N)c1 [Compound 289] | > 10 µM | > 10 µM | > 10 µM | > 10 µM | 0.83 µM | 10000 ng/mL | 10.7 h | 4 h | 240 µg·h/mL | > 10 µM | –
15 | CC(C)(c1ccc(-c2ccc(OCC3CC(CN4CC(S(C)(=O)=O)C4)C3)cc2)cc1)c1cc(Cl)c(OCCCl)c(C#N)c1 (centres unmarked) [Compound 302] | > 10 µM | > 10 µM | > 10 µM | > 10 µM | 1.41 µM | – | – | – | – | > 10 µM | –
16 | CC(C)(c1ccc(-c2cnc(OCc3ccnc(N4CC(S(N)(=O)=O)C4)n3)cn2)cc1)c1cc(Cl)c(OCCCl)c(C#N)c1 [Compound 378] | > 10 µM | > 10 µM | > 10 µM | > 10 µM | 0.17 µM | – | – | – | – | – | IC50 ([1]; Homo sapiens, LNCaP, 168 h): 0.061 µM
17 | CC(C)(c1ccc(-c2ncc(OCc3cnc(-c4cnc(P(C)(C)=O)nc4)cn3)cn2)cc1)c1cc(Cl)c(OCCCl)c(C#N)c1 [Compound 403] | > 10 µM | 1.3 µM | > 10 µM | > 10 µM | – | – | – | – | – | > 10 µM | IC50 ([1]; Homo sapiens, LNCaP, 168 h): 0.26 µM
